Measurements published in patent US10150773B2, “N-substituted 8-[(2,6-difluorobenzyl)oxy]-2,6- dimethylimidazo[1,2-a]pyrazin-3-carboxamide derivatives as stimulators of soluble guanylate cyclase (SGC) for the treatment of cardiovascular diseases” (Bayer Pharma Aktiengesellschaft, priority 2015, dated 2018).

These molecules were tested on recombinant guanylate cyclase reporter cell line (assay: Effect on a recombinant guanylate cyclase reporter cell line). Conditions: in some cases mean values from individual determinations.
Assay type: cell-based
Procedure: B-2. Effect on a Recombinant Guanylate Cyclase Reporter Cell Line
The cellular activity of the compounds according to the invention is determined using a recombinant guanylate cyclase reporter cell line, as described in F. Wunder et al., Anal. Biochem. 339, 104-112 (2005).
Representative MEC values (MEC=minimum effective concentration) for the compounds of the invention are shown in the table below (in some cases as mean values from individual determinations): […]

Structure (SMILES) | MEC (minimum effective concentration)
Cc1cn2c(C(=O)NC(C)(CO)c3nnn(C(F)F)n3)c(C)nc2c(OCc2c(F)cccc2F)n1 (racemic) [Example 2, rac-8-[(2,6-Difluorobenzyl)oxy]-N-{2-[2-(difluoromethyl)-2H-tetrazol-5-yl]-1-hydroxypropan-2-yl}-2,6-dimethylimidazo[1,2-a]pyrazine-3-carboxamide] | 0.10 µM
[2H]C([2H])([2H])CC(C)(N)CNC(=O)c1c(C)nc2c(OCc3c(F)cccc3F)nc(C)cn12 (single isomer, unassigned; enantiomer a) [Example 3, ent-N-[2-Amino-2-methyl(4,4,4-^2H3)butyl]-8-[(2,6-difluorobenzyl)oxy]-2,6-dimethylimidazo[1,2-a]pyrazine-3-carboxamide (Enantiomer A)] | 0.65 µM
Cc1cn2c(C(=O)NCC(C)(N)CC[Si](C)(C)C)c(C)nc2c(OCc2c(F)cccc2F)n1 (single isomer, unassigned; enantiomer a) [Example 4, ent-N-[2-Amino-2-methyl-4-(trimethylsilyl)butyl]-8-[(2,6-difluorobenzyl)oxy]-2,6-dimethylimidazo[1,2-a]pyrazine-3-carboxamide (Enantiomer A)] | 1.0 µM
Cc1cn2c(C(=O)NCC(C)(N)CC[Si](C)(C)C)c(C)nc2c(OCc2c(F)cccc2F)n1 (single isomer, unassigned; enantiomer b) [Example 5, ent-N-[2-Amino-2-methyl-4-(trimethylsilyl)butyl]-8-[(2,6-difluorobenzyl)oxy]-2,6-dimethylimidazo[1,2-a]pyrazine-3-carboxamide (Enantiomer B)] | 1.0 µM
Cc1cn2c(C(=O)N[C@@](C)(CO)c3nnc(C)s3)c(C)nc2c(OCc2c(F)cccc2F)n1 [Example 1, ent-8-[(2,6-Difluorobenzyl)oxy]-N-[(2S)-1-hydroxy-2-(5-methyl-1,3,4-thiadiazol-2-yl)propan-2-yl]-2,6-dimethylimidazo[1,2-a]pyrazine-3-carboxamide] | 0.65 µM
